Several values for one entry are separate records, joined by “and”; a condition that tells them apart may be missing. Identical values can stand only once. Entries after “also recorded” stand apart in the source; their conditions may differ.
Assays:
[1] = biological target: T1, MR1 surface expression on THP-1 MR1 cells (Homo sapiens, UniProt Q95460); assay: Cell surface MR1 modulation on APCs (flow cytometry, anti-MR1 mAb 26.5); assay type: cell-based
T1 construct: expressed in transfected cells; host or cells: THP-1 (ATCC TIB-202) stably expressing MR1 (THP1-MR1)
T1 sequence (Q95460 23-341): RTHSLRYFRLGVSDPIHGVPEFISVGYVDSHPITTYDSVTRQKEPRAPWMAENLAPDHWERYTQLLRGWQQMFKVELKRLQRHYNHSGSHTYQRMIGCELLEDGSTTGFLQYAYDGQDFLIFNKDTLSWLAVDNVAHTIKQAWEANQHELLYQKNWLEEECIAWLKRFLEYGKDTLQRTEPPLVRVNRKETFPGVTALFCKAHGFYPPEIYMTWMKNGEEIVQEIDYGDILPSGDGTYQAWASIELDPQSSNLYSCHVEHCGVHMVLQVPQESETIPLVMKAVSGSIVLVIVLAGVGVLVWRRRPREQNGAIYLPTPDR
T1 sequence (P61769 21-119 partner): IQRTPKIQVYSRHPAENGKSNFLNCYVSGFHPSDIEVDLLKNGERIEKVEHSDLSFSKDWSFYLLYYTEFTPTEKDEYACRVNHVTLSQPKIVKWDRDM
Experimental: […] […] For each condition, net MFI was calculated subtracting isotype MFI from anti-MR1 MFI and fold change of cells treated with synthetic molecules over cells treated with vehicle was calculated.

[2] = test system: MR1T cell clones; assay: MR1T cell activation assay with THP-1 cells incubated with compounds (cytokine ELISA); assay type: cell-based, human
Experimental: MR1T cells (5×10^4/well unless otherwise indicated) were co-cultured with the indicated APCs (10^5 cells per well unless otherwise indicated) for 18 h in 120 μL volume in triplicate.
When nucleobases, nucleosides or nucleotides (all 250 μM) and synthetic compounds M3ADE, OPdA, M1G or OPdC were used to stimulate T cells, the THP-1 cells (10^5/well) were cultured 2 h with the indicated molecules or medium only, prior to T-cell addition. When a single concentration of synthetic antigens was used, 100 μM OPdA, 100 μM OPdC and 13 μM M1G were used for all clones, while 100 μM M3ADE was used for all clones except DGB129, AC1A4, AC1B76 and AVA46 for which 1 μM was used.

[3] = test system: tumor-infiltrating T cells from lung cancer biopsies; assay: Activation of MR1-M3ADE tetramer-sorted TIL lines; assay type: cell-based, human; details: A375-MR1 cells with or without M3ADE; TCR downregulation, IFN-γ
Experimental: Tissue biopsy samples derived from small cell lung tumors that were digested with media containing Accutase (Innovative Cell; Cat #AT-104), Collagenase IV 200 U/mL (Worthington; Cat #LS004189), DNAse I 0.5 mg/mL (Sigma-Aldrich Cat #D5025) and Hyaluronidase 50 mg/mL (Sigma; Cat #H6254) for 1 hour at 37° C. Digested material was passed through a […] cell strainer and erythrocytes were lysed before being frozen and stored in liquid nitrogen. After thawing, TILs were rested for 2 days prior to co-culture with A375-p2mKO-MR1 cells in a ratio of 1:1 and in the presence of 50 μM M3ADE. On day 5, human rIL-2 (5 U/mL) was added to the cultures for a further 5 days, and expansion in this manner was repeated 3 times. Cells were then stained with MR1-M3ADE tetramer, anti-CD3, anti-CD4 and anti-CD8 mAbs, and tetramer positive cells were sorted into a bulk line before functional experiments.
The inventors isolated TILs from non-small cell-lung-cancer biopsies from two patients and co-cultured them with A375-MR1 cells loaded with M3ADE, in order to expand MR1T cells. […] The inventors measured the extent of MR1T-cell activation via TCR downregulation, which occurred only in the presence of […] M3ADE-loaded A375-MR1 cells, and was prevented by anti-MR1 blocking mAbs (FIG. 14C, donor 840, and FIG. 14D, donor 895). […]

[4] = test system: MR1T cell clones; assay: MR1T cell activation assay with treated and fixed A375-MR1 cells; assay type: cell-based, human; details: 6 h incubation before fixation; clones TC5A87 and DGB129 (FIG. 9C, D)
[5] = test system: MR1T cell clones; assay: MR1T cell activation assay with drug-treated THP-1 cells; assay type: cell-based, human; details: THP-1 cells with Doxorubicin 75 nM or Paclitaxel 5 μM and nucleosides (dAdenosine and Guanosine, both 150 μM)
Experimental: MR1T cells (5×10^4/well unless otherwise indicated) were co-cultured with the indicated APCs (10^5 cells per well unless otherwise indicated) for 18 h in 120 μL volume in triplicate. In some experiments, anti-MR1 mAbs (clone 26.5, purified and endotoxin-free mouse IgG2a, (Lepore et al., 2014)) or mouse IgG2a isotype control mAbs (LEAF, Biolegend, Cat #401504) (both at 30 μg/mL) were added and incubated for 30 min at 37° C. prior to the addition of T cells.
In experiments with mycophenolic acid (10 μM), EHNA (25 μM), S-p-bromobenzylglutathione cyclopentyl diester (BBG, 20 μM) (all from Sigma-Aldrich), THP-1 cells (1×10^6/mL) were treated with the indicated concentrations of drugs in complete medium at 37° C. for 18 h before being washed twice with PBS, counted and used for T-cell activation. In experiments where THP-1 cells (1×10^6/mL) were treated with doxorubicin (75 nM) and paclitaxel (5 μM) (both from Sigma-Aldrich), the cells were incubated at 37° C. for 18 h before being washed twice with PBS, counted, and incubated for 2 h with vehicle or 150 μM dAdo and 150 μM guanosine (Sigma-Aldrich) prior to T-cell addition. In experiments where fixed A375-MR1 cells were used to activate MR1T cells, APCs (4×10^5/mL) were treated with apocynin (APO, 100 μM), L-glutathione reduced (GSH, 4 mM), N-acetyl cysteine (NAC, 4 mM), L-buthionine-sulfoximine (BSO, 400 μM) mercaptosuccinic acid (MSA, 3.3 μM), ML-210 (6 μM) or 1S,3R-RSL3 (RSL3, 1 μM), hydralazine hydrochloride (100 μM) or aminoguanidine hemisulfate salt (5 mM) for 18 h at 37° C. before being washed twice with PBS, fixed with glutaraldehyde, counted and used for MR1T cell stimulation.
The following human cytokines were assessed by ELISA using specific mAbs: GM-CSF (purified clone BVD2-23B6 and biotinylated clone BVD2-21C11, Biolegend Cat #502202 and 502304, respectively), IFN-γ (purified clone MD-1 and biotinylated clone 4S.B3, Biolegend Cat #507502 and 502504, respectively), IL-13 (purified clone JES10-5A2 and biotinylated clone SB126d, SouthernBiotech Cat #10125-01 and 15930-08, respectively).

[6] = test system: THP-1 cells; assay: ROS production measurement (CM-H2DCFDA); assay type: cell-based, human; details: 75 nM Doxorubicin or 5 μM Paclitaxel, 18 h (FIG. 17A)
Experimental: CM-H2DCFDA (Thermo Fisher Scientific) was used to assess ROS production in cell upon cell treatment with Doxorubicin and Paclitaxel. THP-1 cells ([…]) were labelled with 10 μM CM-H2DCFDA for 30 min at 37° C. in the dark, then washed with PBS and resuspended in complete medium. 10^5 cells were seeded per well and treated with 75 nM Doxorubicin, 5 μM Paclitaxel or vehicle for 18 h at 37° C. Phorbol 12-myristate 13-acetate (PMA, 50 ng/mL) was used as positive control.

[7] = test system: MAIT clone MRC25; assay: Control stimulation of MAIT clone MRC25; assay type: cell-based, human; details: drug-treated APCs; paclitaxel in presence of nucleosides (FIG. 16C-D)
Experimental: In some experiments, MAIT cells were stimulated by APCs pulsed 3 h with 5-OP-RU as previously described or with 30 μM 6,7-dimethyl-8-ribityllumazine (Cayman Chemical Cat #23370).

[8] = test system: MR1T cell clones; assay: Activation assay with plate-bound soluble MR1; assay type: cell-based, human; details: IL-13 (FIG. 4)
Experimental: Recombinant human P2m-MR1-Fc was produced in CHO-K1 cells as previously described (Lepore et al., 2017) and 4 μg/mL were coated onto 96 wells plates (Nunc, Cat #439454) for 18 h at 4° C. Plate-bound MR1 was then washed twice with wash buffer (150 mM NaCl, 20 mM Tris and 2% Glycerol, pH 5.6) to remove bound antigens. Then, the synthetic antigens (M3ADE, OPdA, M1G and OPdC) were added at the indicated concentrations and incubated for 6 h at room temperature (RT). Unbound antigens were washed twice with PBS before the addition of excess PBS. In some experiments, bacteria-produced and refolded MR1-M3ADE protein was serially diluted in PBS and added to a high protein binding plate (Nunc, Cat #439454) for 2 h at 37° C. then washed twice and used in the stimulation assay. Indicated MR1T cell clones ([…]) were added and supernatants were collected after 18 h. Released cytokines were detected by ELISA. Recombinant human P2m-MR1-Fc was produced in CHO-K1 cells as previously described and 4 μg/mL were coated onto 96 wells plates. Antigens produced by CHO-K1 cells were removed by washing twice with wash buffer (150 mM NaCl, 20 mM Tris and 2% Glycerol, pH 5.6). […]
Correct protein conformation was confirmed by performing a plate-bound activation of the MR1T cell clone DGB129. […] IL-13 ELISA was then used as an activation readout. […]

O=CC1=COC2CC1C(C=O)=CN2c1ncnc2[nH]cnc12 (stereo not drawn) [Cmpd 13, 8-(9H-purin-6-yl)-2-oxa-8-azabicyclo[3.3.1]nona-3,6-diene-4,6-dicarbaldehyde]
MRI upregulation ([1]; THP-1 MR1 cells, 3 h at 37° C., 3 doses each): YES | cell surface MR1 upregulation on APCs (in words) ([1]; pulsed APC / THP1-MR1 cells): most efficient in increasing MR1 surface expression | Reactive T cells isolated [2]: YES | activation of MR1T clone AC1A4 by adduct [2]: activated | potency among the synthesized adducts [2]: highest potency | response to THP-1 cells when adduct added ([2]; M1G or M3ADE added to clones QY1A16 and QY1C3, respectively): significant decreased response | activation of MR1T clone AVA34 by compound ([2]; THP-1 / MR1+ APCs loaded with compound, listed as M3ADE): specifically activated; also recorded: reacted | number of MR1T clones significantly stimulated ([2]; fourteen randomly selected MR1T clones, THP-1 cells, IFN-γ (FIG. 12B), listed as M3ADE): six and 6/14 | IL-13 release by AVA34 cells ([2]; toward THP-1 cells in the presence of compound (FIG. 5b)): IL-13 release | reactivity of tetramer-positive TIL cells, donor 895 [3]: reacted only to M3ADE-loaded A375-MR1 cells | reactivity of tetramer-positive TIL cells, donor #840 [3]: irrespective of the presence of M3ADE

O=CC[C@@H](O)[C@H](O)[C@H](O)CO [deoxyglucose, 2-deoxy-D-Glucose]
MR1T-cell stimulatory capacity of pulsed and fixed A375-MR1 cells [4]: abolished

COc1cccc2c1C(=O)c1c(O)c3c(c(O)c1C2=O)C[C@@](O)(C(=O)CO)C[C@@H]3O[C@H]1C[C@H](N)[C@H](O)[C@H](C)O1 [doxorubicin, Doxorubicin]
activation of MR1T-cell clones TC5A87, DGB129, MCA3C3 [5]: promoted activation of all three MR1T-cell clones | ROS accumulation [6]: significantly increased ROS accumulation

CC(=O)O[C@H]1C(=O)[C@@]2(C)[C@H]([C@H](OC(=O)c3ccccc3)[C@]3(O)C[C@H](OC(=O)[C@H](O)[C@@H](NC(=O)c4ccccc4)c4ccccc4)C(C)=C1C3(C)C)[C@]1(OC(C)=O)CO[C@@H]1C[C@@H]2O [paclitaxel, Paclitaxel]
activation of MR1T-cell clones TC5A87, DGB129, MCA3C3 [5]: promoted activation of all three MR1T-cell clones | MAIT-cell response [7]: little but significant stimulation | ROS accumulation [6]: significantly increased ROS accumulation

MR1-M3ADE monomers: human recombinant soluble MR1 refolded in vitro in the presence of M3ADE
stimulation of clone DGB129 by refolded MR1-M3ADE monomers [8]: stimulated

Reference: patent US20230099822A1, “MR1 LIGANDS AND PHARMACEUTICAL COMPOSITIONS FOR IMMUNOMODULATION” (UNIVERSITÄT BASEL, priority 2020, published 2023)
